Data: PubChem BioAssay AID256 (DTP/NCI, 2004)
Inconclusive results and toxic doses are left out. The calls were made as follows: active = survival T/C of 150% or more; inactive = T/C below 125% in these data.

Test system: CD2F1 mice, L1210 leukemia ip, survival T/C
Test: NCI In Vivo Anticancer Drug Screen. Data for tumor model L1210 Leukemia (intraperitoneal) in CD2F1 (CDF1) mice
Conditions: endpoint: mean survival time, higher = longer survival
Outline: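 Antitumor effect is scored in animals hosting a serially transplanted tumor. Values compare compound-dosed animals against vehicle-only controls as a simple quotient.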

[1] = dose: 100.0 mg/kg/injection, schedule: Q01DX009 (ip), vehicle: saline with Tween-80
[2] = dose: 200.0 mg/kg/injection, schedule: Q01DX009 (ip), vehicle: saline with Tween-80
[3] = dose: 400.0 mg/kg/injection, schedule: Q01DX009 (ip), vehicle: saline with Tween-80
[4] = dose: 100.0 mg/kg/injection, schedule: Q04DX003 (ip), vehicle: saline with Tween-80
[5] = dose: 200.0 mg/kg/injection, schedule: Q04DX003 (ip), vehicle: saline with Tween-80
[6] = dose: 400.0 mg/kg/injection, schedule: Q04DX003 (ip), vehicle: saline with Tween-80

Measured: T/C

CCn1c(N)c(N)c(=O)[nH]c1=S
inactive: [1] 94 % of control | [2] 98 % of control | [3] 88 % of control

C1=CC2c3ccccc3C1C1C=CC21 (stereo unspecified)
inactive: [1] 95 % of control | [4] 91 % of control | [2] 108 % of control | [5] 93 % of control | [3] 93 % of control | [6] 93 % of control

CC(=O)OC1C2C=CC1C1CC21 (stereo unspecified)
inactive: dose: 100.0 mg/kg/injection, schedule: Q01DX001 (ip), vehicle: saline 96 % of control | dose: 200.0 mg/kg/injection, schedule: Q01DX001 (ip), vehicle: saline 100 % of control | dose: 400.0 mg/kg/injection, schedule: Q01DX001 (ip), vehicle: saline 98 % of control

NC(=S)N/N=C/c1ccc(OC(F)(F)F)cn1
inactive: dose: 1.56 mg/kg/injection, schedule: Q01DX009 (ip), vehicle: other 104 % of control | dose: 3.13 mg/kg/injection, schedule: Q01DX009 (ip), vehicle: other 100 % of control | dose: 6.25 mg/kg/injection, schedule: Q01DX009 (ip), vehicle: other 108 % of control | dose: 12.5 mg/kg/injection, schedule: Q01DX009 (ip), vehicle: other 118 % of control | dose: 25.0 mg/kg/injection, schedule: Q04DX002 (ip), vehicle: other 89 % of control | dose: 50.0 mg/kg/injection, schedule: Q04DX002 (ip), vehicle: other 104 % of control | dose: 100.0 mg/kg/injection, schedule: Q04DX002 (ip), vehicle: other 115 % of control

COc1ccc(NC(=O)Nc2ccc(F)cc2)cc1
inactive: [4] 101 % of control | [5] 96 % of control | [6] 102 % of control

CC1NC(=O)OC12CCCCC2 (stereo unspecified)
inactive: [1] 101 % of control | [2] 107 % of control

O=S(=O)(Nc1ccc2c3c(cccc13)CC2)c1ccccc1
inactive: [4] 96 % of control | [5] 96 % of control | [6] 98 % of control

O=C(O)c1ccsc1
inactive: dose: 37.5 mg/kg/injection, schedule: Q04DX003 (ip), vehicle: saline with Tween-80 97 % of control | dose: 75.0 mg/kg/injection, schedule: Q04DX003 (ip), vehicle: saline with Tween-80 97 % of control

S=C1NCCS1
inactive: dose: 75.0 mg/kg/injection, schedule: Q01DX009 (ip), vehicle: Klucel (hydroxypropylcellulose) (HPC) 95 % of control | dose: 150.0 mg/kg/injection, schedule: Q01DX009 (ip), vehicle: Klucel (hydroxypropylcellulose) (HPC) 96 % of control | dose: 300.0 mg/kg/injection, schedule: Q01DX009 (ip), vehicle: Klucel (hydroxypropylcellulose) (HPC) 101 % of control

CCOC(=O)C12CCCCC1C/C(=N/NC(N)=O)CC2 (stereo unspecified)
inactive: dose: 50.0 mg/kg/injection, schedule: Q04DX003 (ip), vehicle: saline with Tween-80 96 % of control | dose: 100.0 mg/kg/injection, schedule: Q01DX001 (ip), vehicle: acetone 92 % of control | dose: 100.0 mg/kg/injection, schedule: Q04DX003 (ip), vehicle: acetone 96 % of control | [4] 96 % of control | dose: 200.0 mg/kg/injection, schedule: Q01DX001 (ip), vehicle: acetone 94 % of control | dose: 200.0 mg/kg/injection, schedule: Q01DX001 (ip), vehicle: saline with Tween-80 88 % of control | dose: 200.0 mg/kg/injection, schedule: Q04DX003 (ip), vehicle: acetone 90 % of control | dose: 400.0 mg/kg/injection, schedule: Q01DX001 (ip), vehicle: acetone 97 % of control | dose: 400.0 mg/kg/injection, schedule: Q04DX003 (ip), vehicle: acetone 90 % of control
